IC50 data for 20 compounds are collected here from US8933099B2, “Monocyclic pyridine derivative” (Eisai R&D Management Co., Ltd., priority 2013, dated 2015).

SMILES strings stand for the structures.

This assay concerns human stomach cancer cell line SNU-16 (FGFR2 gene amplification). The experiment in a line: SNU-16 growth inhibition assay. The assay is classed as cell-based. To be noted: Homo sapiens, SNU-16, 72 h, read-out: SNU-16 (IC50 (nM)). As to the method:
In this assay, the growth inhibitory activity of a test substance in a human stomach cancer cell line harboring FGFR2 gene amplification is measured.
Then, 10 μL of Cell Counting Kit-8 (Dojindo Laboratories, CK04) was added to each well, and the resultant was incubated for 1 to 2 hours in a 5% CO2 incubator (37° C.) to cause a color reaction. The absorbance value was measured with ENVISION™ (PerkinElmer Co., Ltd.) at 450 nm.
As for `CCOc1cc2c(ccn2C(=O)NC)cc1Oc1ccnc(NC(=O)c2ccc(C3CCNCC3)cc2)c1` [Example 15, 6-Ethoxy-N-methyl-5-((2-(4-(piperidin-4-yl)benzamide)pyridin-4-yl)oxy)-1H-indole-1-carboxamide], the IC50 (usually the concentration that inhibits the measured activity by half) was determined as 9.7 nM. On to `CNC(=O)n1ccc2cc(Oc3ccnc(NC(=O)c4ccc(C5CCNCC5)cc4)c3)c(OC(C)C)cc21` [Example 17, 6-Isopropoxy-N-methyl-5-((2-(4-(piperidin-4-yl)benzamide)pyridin-4-yl)oxy)-1H-indole-1-carboxamide], for which the IC50 worked out at 17.7 nM. The result for `CNC(=O)n1ccc2cc(Oc3ccnc(NC(=O)c4ccc(C5CCNCC5)cc4)c3)c(OCCOC)cc21` [Example 20, 6-(2-Methoxyethoxy)-N-methyl-5-((2-(4-(piperidin-4-yl)benzamide)pyridin-4-yl)oxy)-1H-indole-1-carboxamide] reads 7.5 nM; that for `CCOCCOc1cc2c(ccn2C(=O)NC)cc1Oc1ccnc(NC(=O)c2ccc(C3CCNCC3)cc2)c1` [Example 24, 6-(2-Ethoxyethoxy)-N-methyl-5-((2-(4-(piperidin-4-yl)benzamide)pyridin-4-yl)oxy)-1H-indole-1-carboxamide], 6.2 nM; that for `CCOc1cc2c(ccn2C(=O)NC)cc1Oc1ccnc(NC(=O)c2ccc(C3CCN(CC(C)(C)O)CC3)cc2)c1` [Example 58], 10 nM. Turning to `CNC(=O)n1ccc2cc(Oc3ccnc(NC(=O)c4ccc(C5CCN(C)CC5)cc4)c3)c(OC(C)C)cc21` [Example 69], the IC50 was 17.5 nM. For the compound `CNC(=O)n1ccc2cc(Oc3ccnc(NC(=O)c4ccc(C5CN(CC(C)(C)O)C5)cc4)c3)c(OCCOC)cc21` [Example 79], the IC50 was 4.6 nM.

`CNC(=O)n1ccc2cc(Oc3ccnc(NC(=O)c4ccc(C5CN(C)C5)cc4)c3)c(OCCOC)cc21` [Example 87]: the IC50 turned out to be 3.9 nM. The result for `CNC(=O)n1ccc2cc(Oc3ccnc(NC(=O)c4ccc(C5CN(C(C)C)C5)cc4)c3)c(OCCOC)cc21` [Example 88] reads 6.9 nM; that for `CCOCCOc1cc2c(ccn2C(=O)NC)cc1Oc1ccnc(NC(=O)c2ccc(C3CN(CC(C)(C)O)C3)cc2)c1` [Example 95], 5.1 nM; that for `CCOCCOc1cc2c(ccn2C(=O)NC)cc1Oc1ccnc(NC(=O)c2ccc(C3CN(C[C@@H](C)O)C3)cc2)c1` [Example 96], 6.4 nM. The result for `CCOCCOc1cc2c(ccn2C(=O)NC)cc1Oc1ccnc(NC(=O)c2ccc(C3CN(C[C@H](C)O)C3)cc2)c1` [Example 97] reads 3.6 nM.

As to `CCOCCOc1cc2c(ccn2C(=O)NC)cc1Oc1ccnc(NC(=O)c2ccc(C3CCN(CC(C)(C)O)CC3)cc2)c1` [Example 109], the IC50 was 6.7 nM.

Consider `CCOCCOc1cc2c(ccn2C(=O)NC)cc1Oc1ccnc(NC(=O)c2ccc(C3CCN(C(C)C)CC3)cc2)c1` [Example 110], for which the IC50 was 5.8 nM.

`CCOCCOc1cc2c(ccn2C(=O)NC)cc1Oc1ccnc(NC(=O)c2ccc(C3CCN(CC)CC3)cc2)c1` [Example 113]: the IC50 turned out to be 5.7 nM. Regarding `CCOCCOc1cc2c(ccn2C(=O)NC)cc1Oc1ccnc(NC(=O)c2ccc(C3CCN(C)CC3)cc2)c1` [Example 114], the IC50 was 4.7 nM. Under `CNC(=O)n1ccc2cc(Oc3ccnc(NC(=O)c4ccc(C5CN(C(C)C)C5)cc4)c3)c(OCCCOC)cc21` [Example 123] stands 8.5 nM. Under `CCN1CC(c2ccc(C(=O)Nc3cc(Oc4cc5ccn(C(=O)NC)c5cc4OCCCOC)ccn3)cc2)C1` [Example 124] stands 8.9 nM; under `CNC(=O)n1ccc2cc(Oc3ccnc(NC(=O)c4ccc(C5CCN(CCO)CC5)cc4)c3)c(OCCCOC)cc21` [Example 128], 6.4 nM.

Turning to `CCN1CCC(c2ccc(C(=O)Nc3cc(Oc4cc5ccn(C(=O)NC)c5cc4OCCCOC)ccn3)cc2)CC1` [Example 129], the IC50 stood at 7.7 nM.
